≈ marks a conversion by molar mass, not a printed value. Calls of active or inactive are those of the source. The calls are words filed in the database; no cut-off is given here.
Experiments:
[1] = test system: Escherichia coli; experiment: Antibacterial activity against Escherichia coli ATCC 25922 by micro dilution method; type: functional
[2] = test system: Enterococcus faecium; experiment: Antibacterial activity against Enterococcus faecium isolate 569 by micro dilution method; type: functional
[3] = test system: Klebsiella pneumoniae; experiment: Antibacterial activity against Klebsiella pneumoniae ATCC 13883 by micro dilution method; type: functional
[4] = test system: Staphylococcus epidermidis; experiment: Antibacterial activity against Staphylococcus epidermidis isolate 533 by micro dilution method; type: functional
[5] = test system: Streptococcus agalactiae; experiment: Antibacterial activity against Streptococcus agalactiae isolate 52 by micro dilution method; type: functional
[6] = test system: Escherichia coli; experiment: Induction of translation arrest in tolC-deficient Escherichia coli harboring pRFPCER-TrpL2A assessed as increase in pRFPCER-TrpL2A reporter activity at 10 mg/ml after overnight incubation by dual fluorescent-reporter gene assay; type: functional, organism-based
[7] = test system: Enterococcus faecalis; experiment: Antibacterial activity against Enterococcus faecalis isolate 560 by micro dilution method; type: functional
[8] = test system: Staphylococcus aureus; experiment: Antibacterial activity against Staphylococcus aureus isolate 3798 by micro dilution method; type: functional
[9] = test system: Salmonella typhimurium; experiment: Antibacterial activity against Salmonella choleraesuis ATCC 14028 by micro dilution method; type: functional, Salmonella enterica subsp. enterica serovar Typhimurium; details: Salmonella enterica
[10] = test system: Enterococcus gallinarum; experiment: Antibacterial activity against Streptococcus gallinarum ATCC 35038 by micro dilution method; type: functional
[11] = test system: Staphylococcus aureus; experiment: Antibacterial activity against Staphylococcus aureus isolate 3797 by micro dilution method; type: functional
[12] = test system: Staphylococcus aureus; experiment: Antibacterial activity against Staphylococcus aureus isolate 1025 by micro dilution method; type: functional
[13] = test system: Enterococcus faecium; experiment: Antibacterial activity against Enterococcus faecium isolate 568 by micro dilution method; type: functional
[14] = test system: Streptococcus pneumoniae; experiment: Antibacterial activity against Streptococcus pneumoniae ATCC 49619 by micro dilution method; type: functional
[15] = test system: Staphylococcus aureus; experiment: Antibacterial activity against Staphylococcus aureus isolate 10 by micro dilution method; type: functional
[16] = test system: Staphylococcus aureus; experiment: Antibacterial activity against Staphylococcus aureus ATCC 25923 by micro dilution method; type: functional
[17] = test system: Staphylococcus aureus; experiment: Antibacterial activity against Staphylococcus aureus isolate 10 infected in C57BL/6 mouse assessed as survival rate at 7.5 mg/kg, iv measured for 10 days (reference value: 0%); type: functional; details: isolate 10, iv, 240 h
[18] = test system: Staphylococcus aureus; experiment: Antibacterial activity against Staphylococcus aureus isolate 10 infected in C57BL/6 mouse assessed as survival rate at 2.5 mg/kg, iv measured for 10 days (reference value: 0%); type: functional; details: isolate 10, iv, 240 h
[19] = test system: Staphylococcus aureus; experiment: Antibacterial activity against Staphylococcus aureus isolate 10 infected in C57BL/6 mouse assessed as survival rate at 3.5 mg/kg, iv measured for 10 days (reference value: 0%); type: functional; details: isolate 10, iv, 240 h
[20] = Elimination half life in patient with normal creatinine clearance; type: ADME; details: human, in vivo; read-out: beta t1/2
[21] = test system: Staphylococcus aureus; experiment: Antibacterial activity against Staphylococcus aureus isolate 10 infected in iv dosed C57BL/6 mouse measured for 10 days; type: functional; details: isolate 10, iv, 240 h
[22] = test system: Staphylococcus aureus; experiment: Antibacterial activity against Staphylococcus aureus isolate 10 infected in C57BL/6 mouse assessed as survival rate at 5.5 mg/kg, iv measured for 10 days (reference value: 0%); type: functional; details: isolate 10, iv, 240 h
[23] = test system: Staphylococcus aureus; experiment: Antibacterial activity against Staphylococcus aureus isolate 10 infected in C57BL/6 mouse assessed as survival rate at 6.5 mg/kg, iv measured for 10 days (reference value: 0%); type: functional; details: isolate 10, iv, 240 h
[24] = test system: Staphylococcus aureus; experiment: Antibacterial activity against Staphylococcus aureus isolate 10 infected in C57BL/6 mouse assessed as survival rate at 4.5 mg/kg, iv measured for 10 days (reference value: 0%); type: functional; details: isolate 10, iv, 240 h
[25] = Half life in human serum; type: ADME, cell-free

| Structure (SMILES) | MIC [1] [µg/mL] | MIC [2] [µg/mL] | MIC [3] [µg/mL] | MIC [4] [µg/mL] | MIC [5] [µg/mL] | Activity [6] | MIC [7] [µg/mL] | MIC [8] [µg/mL] | MIC [9] [µg/mL] | MIC [10] [µg/mL] | MIC [11] [µg/mL] | MIC [12] [µg/mL] | MIC [13] [µg/mL] | MIC [14] [µg/mL] | MIC [15] [µg/mL] | MIC [16] [µg/mL] | also measured |
| --- | --- | --- | --- | --- | --- | --- | --- | --- | --- | --- | --- | --- | --- | --- | --- | --- | --- |
| CC[C@H]1OC(=O)[C@H](C)[C@@H](O[C@H]2C[C@@](C)(OC)[C@@H](OC(=O)NCCCNC(=O)[C@H]3NC(=O)[C@H]4NC(=O)[C@H](NC(=O)[C@@H]5NC(=O)[C@H](CC(N)=O)NC(=O)[C@H](NC(=O)[C@@H](CC(C)C)NC)[C@H](O)c6ccc(c(Cl)c6)Oc6cc5cc(c6O[C@@H]5O[C@H](CO)[C@@H](O)[C@H](O)[C@H]5O[C@H]5C[C@](C)(N)[C@H](O)[C@H](C)O5)Oc5ccc(cc5Cl)[C@H]4O)c4ccc(O)c(c4)-c4c(O)cc(O)cc43)[C@H](C)O2)[C@H](C)[C@@H](O[C@@H]2O[C@H](C)C[C@H](N(C)C)[C@H]2O)[C@](C)(O)C[C@@H](C)CN(C)[C@H](C)[C@H]2OC(=O)O[C@]21C | > 32 | > 32 | > 32 | 2 (≈ 0.867 µM) | 32 (≈ 13.9 µM) | inactive | 32 (≈ 13.9 µM) | > 32 | > 32 | 4 (≈ 1.73 µM) | 4 (≈ 1.73 µM) | > 32 | 1 (≈ 0.434 µM) | 1 (≈ 0.434 µM) | 1 (≈ 0.434 µM) | 2 (≈ 0.867 µM) |  |
| CC[C@H]1OC(=O)[C@H](C)[C@@H](O[C@H]2C[C@@](C)(OC)[C@@H](OC(=O)NCCNC(=O)[C@H]3NC(=O)[C@H]4NC(=O)[C@H](NC(=O)[C@@H]5NC(=O)C6NC(=O)[C@@H](Cc7ccc(c(Cl)c7)Oc7cc5cc(c7O)Oc5ccc(cc5Cl)[C@H]4O)NC(=O)[C@H](N)c4ccc(O)c(c4)Oc4cc(O)cc6c4)c4ccc(O)c(c4)-c4c(O)cc(O)cc43)[C@H](C)O2)[C@H](C)[C@@H](O[C@@H]2O[C@H](C)C[C@H](N(C)C)[C@H]2O)[C@](C)(O)C[C@@H](C)CN(C)[C@H](C)[C@H]2OC(=O)O[C@]21C | > 32 | 8 (≈ 3.92 µM) | > 32 | 0.5 (≈ 0.245 µM) | 32 (≈ 15.7 µM) | inactive | 16 (≈ 7.84 µM) | 32 (≈ 15.7 µM) | > 32 | 2 (≈ 0.979 µM) | 1 (≈ 0.49 µM) | > 32 | 0.13 (≈ 0.0637 µM) | 0.5 (≈ 0.245 µM) | 0.06 (≈ 0.0294 µM) | 1 (≈ 0.49 µM) |  |
| CN[C@H](CC(C)C)C(=O)N[C@H]1C(=O)N[C@@H](CC(N)=O)C(=O)N[C@H]2C(=O)N[C@H]3C(=O)N[C@H](C(=O)N[C@H](C(=O)O)c4cc(O)cc(O)c4-c4cc3ccc4O)[C@H](O)c3ccc(c(Cl)c3)Oc3cc2cc(c3O[C@@H]2O[C@H](CO)[C@@H](O)[C@H](O)[C@H]2O[C@H]2C[C@](C)(N)[C@H](O)[C@H](C)O2)Oc2ccc(cc2Cl)[C@H]1O [VANCOMYCIN] | > 32 | > 32 | > 32 | 0.5 (≈ 0.345 µM) | 8 (≈ 5.52 µM) |  | > 32 | 8 (≈ 5.52 µM) | > 32 | 4 (≈ 2.76 µM) |  | 8 (≈ 5.52 µM) |  | 2 (≈ 1.38 µM) | 0.25 (≈ 0.173 µM) |  | survival at 7.5 mg/kg [17]: 100%; survival at 2.5 mg/kg [18]: 30%; survival at 3.5 mg/kg [19]: 40%; half-life [20]: 6 to 12 h; ED50 [21]: 4.2 mg/kg; survival at 5.5 mg/kg [22]: 70%; survival at 6.5 mg/kg [23]: 90%; survival at 4.5 mg/kg [24]: 50% |
| CC[C@H]1OC(=O)[C@H](C)[C@@H](O[C@H]2C[C@@](C)(OC)[C@@H](OC(=O)NCCCNC(=O)[C@H]3NC(=O)[C@H]4NC(=O)[C@H](NC(=O)[C@@H]5NC(=O)[C@H](CC(N)=O)NC(=O)[C@H](NC(=O)[C@@H](CC(C)C)NC)[C@H](O)c6ccc(c(Cl)c6)Oc6cc5cc(c6O[C@@H]5O[C@H](CO)[C@@H](O)[C@H](O)[C@H]5O[C@H]5C[C@](C)(N)[C@H](O)[C@H](C)O5)Oc5ccc(cc5Cl)[C@H]4O[C@H]4C[C@](C)(N)[C@@H](O)[C@H](C)O4)c4ccc(O)c(c4)-c4c(O)cc(O)cc43)[C@H](C)O2)[C@H](C)[C@@H](O[C@@H]2O[C@H](C)C[C@H](N(C)C)[C@H]2O)[C@](C)(O)C[C@@H](C)CN(C)[C@H](C)[C@H]2OC(=O)O[C@]21C | > 32 | 4 (≈ 1.63 µM) | > 32 | 1 (≈ 0.408 µM) | 4 (≈ 1.63 µM) | inactive | 8 (≈ 3.27 µM) | 4 (≈ 1.63 µM) | > 32 | 2 (≈ 0.816 µM) | 4 (≈ 1.63 µM) | 16 (≈ 6.53 µM) | 0.5 (≈ 0.204 µM) | 1 (≈ 0.408 µM) | 0.06 (≈ 0.0245 µM) | 1 (≈ 0.408 µM) |  |
| CC[C@H]1OC(=O)[C@H](C)[C@@H](O[C@H]2C[C@@](C)(OC)[C@@H](OC(=O)NCCNC(=O)[C@H]3NC(=O)[C@H]4NC(=O)[C@H](NC(=O)[C@@H]5NC(=O)[C@H](CC(N)=O)NC(=O)[C@H](NC(=O)[C@@H](CC(C)C)NC)[C@H](O)c6ccc(c(Cl)c6)Oc6cc5cc(c6O[C@@H]5O[C@H](CO)[C@@H](O)[C@H](O)[C@H]5O[C@H]5C[C@](C)(N)[C@H](O)[C@H](C)O5)Oc5ccc(cc5Cl)[C@H]4O)c4ccc(O)c(c4)-c4c(O)cc(O)cc43)[C@H](C)O2)[C@H](C)[C@@H](O[C@@H]2O[C@H](C)C[C@H](N(C)C)[C@H]2O)[C@](C)(O)C[C@@H](C)CN(C)[C@H](C)[C@H]2OC(=O)O[C@]21C | > 32 | > 32 | > 32 | 1 (≈ 0.436 µM) | 32 (≈ 14 µM) | Active | 32 (≈ 14 µM) | > 32 | > 32 | 4 (≈ 1.74 µM) | 4 (≈ 1.74 µM) | > 32 | 1 (≈ 0.436 µM) | 1 (≈ 0.436 µM) | 1 (≈ 0.436 µM) | 1 (≈ 0.436 µM) |  |
| CC[C@H]1OC(=O)[C@H](C)[C@@H](O[C@H]2C[C@@](C)(OC)[C@@H](O)[C@H](C)O2)[C@H](C)[C@@H](O[C@@H]2O[C@H](C)C[C@H](N(C)C)[C@H]2O)[C@](C)(O)C[C@@H](C)C(=O)[C@H](C)[C@@H](O)[C@]1(C)O |  |  |  |  |  | Active |  |  |  |  |  |  |  |  |  |  |  |
| CC[C@H]1OC(=O)[C@H](C)[C@@H](O[C@H]2C[C@@](C)(OC)[C@@H](O)[C@H](C)O2)[C@H](C)[C@@H](O[C@@H]2O[C@H](C)C[C@H](N(C)C)[C@H]2O)[C@](C)(O)C[C@@H](C)CN(C)[C@H](C)[C@@H](O)[C@]1(C)O [AZITHROMYCIN] | 8 (≈ 10.7 µM) | 8 (≈ 10.7 µM) | 16 (≈ 21.4 µM) | 2 (≈ 2.67 µM) | > 32 | Active | > 32 | > 32 | 16 (≈ 21.4 µM) | 4 (≈ 5.34 µM) | > 32 | 16 (≈ 21.4 µM) | 8 (≈ 10.7 µM) | 8 (≈ 10.7 µM) | 1 (≈ 1.34 µM) | 1 (≈ 1.34 µM) | half-life [25]: 68 h |
| CC[C@H]1OC(=O)[C@H](C)[C@@H](O[C@H]2C[C@@](C)(OC)[C@@H](OC(=O)NCCNC(=O)[C@H]3NC(=O)[C@H]4NC(=O)[C@H](NC(=O)[C@@H]5NC(=O)[C@H](CC(N)=O)NC(=O)[C@H](NC(=O)[C@@H](CC(C)C)NC)[C@H](O)c6ccc(c(Cl)c6)Oc6cc5cc(c6O[C@@H]5O[C@H](CO)[C@@H](O)[C@H](O)[C@H]5O[C@H]5C[C@](C)(N)[C@H](O)[C@H](C)O5)Oc5ccc(cc5Cl)[C@H]4O[C@H]4C[C@](C)(N)[C@@H](O)[C@H](C)O4)c4ccc(O)c(c4)-c4c(O)cc(O)cc43)[C@H](C)O2)[C@H](C)[C@@H](O[C@@H]2O[C@H](C)C[C@H](N(C)C)[C@H]2O)[C@](C)(O)C[C@@H](C)CN(C)[C@H](C)[C@H]2OC(=O)O[C@]21C | > 32 | 8 (≈ 3.28 µM) | > 32 | 2 (≈ 0.821 µM) | 8 (≈ 3.28 µM) | Active | 16 (≈ 6.57 µM) | 8 (≈ 3.28 µM) | > 32 | 4 (≈ 1.64 µM) | 4 (≈ 1.64 µM) | 8 (≈ 3.28 µM) | 1 (≈ 0.411 µM) | 1 (≈ 0.411 µM) | 0.06 (≈ 0.0246 µM) | 1 (≈ 0.411 µM) | survival at 7.5 mg/kg [17]: 80%; survival at 2.5 mg/kg [18]: 30%; survival at 3.5 mg/kg [19]: 20%; ED50 [21]: 4.7 mg/kg; survival at 5.5 mg/kg [22]: 70%; survival at 6.5 mg/kg [23]: 70%; survival at 4.5 mg/kg [24]: 40% |
